One assay deals with MDA-MB-231. Briefly: Antitumor activity against human MDA-MB-231 cells. The assay is classed as functional, cell-based.
The test system of another assay is HT-29. Briefly: Antitumor activity against human HT-29 cells. The class given is functional, cell-based.
Another assay relates to A549. The experiment in a line: Antitumor activity against human A549 cells. The class given is functional, cell-based.
In another assay the test system is Plasmodium falciparum. The experiment in a line: Antimalarial activity against Plasmodium falciparum FcB1. Particulars: FcB1/Columbia. The assay is classed as functional, organism-based.
The nature of assay [1]: Toxicity against Dysidea avara.
The nature of assay [2]: Toxicity against Ircinia variabilis.

Activity calls are given as the source filed them. No cut-off for these calls is given here.

In the case of `COc1ccc(/C=C/N2C(=O)N/C(=C\CCNC(=N)N)C2=O)cc1Br`, the result in the assay with MDA-MB-231, in the assay with HT-29, with A549 and in the assay with Plasmodium falciparum was inactive.

`N=C(N)NCC/C=C1\NC(=O)N(/C=C/c2ccc(O)cc2)C1=O`: the result with MDA-MB-231, in the assay on HT-29, in the assay with A549 and in the assay with Plasmodium falciparum was inactive.

As usually defined, the EC50 is the concentration at which the effect is half-maximal. A higher EC50 goes with a less potent agent. `COc1ccc(/C=C/N2C(=O)N/C(=C\CCNC(=N)N)C2=O)cc1` [PARAZOANTHINE C]: the result in the assay on MDA-MB-231, in the assay with HT-29, in the assay on A549 and in the assay on Plasmodium falciparum was inactive. For the same compound, the EC50 in assay [1] and in assay [2] was 1.64 µM in each case.

Turning to `N=C(N)NCCC[C@@H]1NC(=O)N(/C=C/c2ccc(O)cc2)C1=O`, the result in the assay with MDA-MB-231, in the assay with HT-29, in the assay with A549 and in the assay on Plasmodium falciparum was inactive.

With `COc1ccc(/C=C/N2C(=O)N[C@@H](CCCNC(=N)N)C2=O)cc1Br`, the outcome with MDA-MB-231, with HT-29, in the assay with A549 and with Plasmodium falciparum was inactive.
